Measurements taken from patent US9505775B2, “Inhibitors of cytomegalovirus” (Boehringer Ingelheim International GmbH, priority 2012, dated 2016).

Molecular target: T1, purified recombinant HCMV polymerase from strain AD169 (UL54) (Human cytomegalovirus, UniProt P08546)
T1 construct: made in house; host or cells: Sf21 insect cells (baculovirus)
Test: HCMV Polymerase LANCE TR-FRET Assay
Type: biochemical
Settings: 2 nM GST-UL54, 37° C. for 30 min; read-out: IC50 (nM) Example B
Method: This non-radiometric assay determines the enzymatic activity of purified recombinant HCMV polymerase from strain AD169 (UL54) using a Digoxigenin-labeled oligonucleotide priming a heteropolymeric template. The enzymatic activity is determined by incorporating Biotin-dUTP in the nascent complementary strand. The signal is generated by Fluorescence Resonance Energy Transfer from the donor (Anti-Digoxigenin-Europium Chelate binding with the primer) to the acceptor Streptavidin-AlloPhycoCyanin (SA-APC) binding to the biotin of the labeled nucleotides incorporated in proximity.
Serial dilutions of the DMSO stock compound solution are performed using DMSO in columns 2-11 and 14-23. DMSO alone is present in columns 1, 12, 13 and 24. Three μL of the DMSO serial dilutions is transferred and diluted using 21 μL of compound dilution buffer (10 mM Hepes pH 7.5, 25 mM KCl, 5 mM MgCl2, 1 mM TCEP) to obtain 12.5% DMSO. 4 μL per well of the 12.5% DMSO serial dilution compound solution is added to the assay plate. The plate is centrifuged at 200×g for 30 sec.
The assay conditions are the following: 10 mM HEPES pH 7.5, 25 mM KCl, 7.5 mM NaCl, 5 mM MgCl2, 0.2 mg BSA/mL, 1 mM TCEP, 1.5% glycerol, 5% DMSO, 235 nM dATP, 350 nM dCTP, 350 nM dGTP, 235 nM dTTP, 12 nM biotin-16-dUTP, 23.5 nM Dig-primer/template, 2 nM GST-UL54. The assay volume is 10 μL. […] The primer and template are annealed in 10 mM Tris-HCl pH 7.5, 50 mM NaCl at a respective concentration of 50 μM. They are incubated at 95° C. for 5 min in a dry batch block. The block is removed from the dry bath and allowed to cool to RT. Aliquots are made and stored at −20° C.
To perform the assay, 3 μL of the enzyme solution is added to columns 2-12 and 14-24. The enzyme is substituted by the blank solution (b solution without enzyme) for columns 1 and 13 (blanks). The plate is centrifuged at 200×g for 30 sec. 3 μL of substrate solution is added to each well. The plate is centrifuged at 200×g for 30 sec. Plates are incubated at 37° C. for 30 min. 5 μL of conjugate solution is added (25 mM Hepes pH 7.5, 0.1 M NaCl, 0.25% Tween-20, 1 mg/mL BSA, 12 mM EDTA, 24 nM Sreptavidin-APC, 342 ng/mL Anti-Dig-Europium). The plates are incubated at RT for at least 120 min. The signal is read on the Envision plate reader (Perkin-Elmer) or equivalent.

T1 sequence (P08546 whole entry): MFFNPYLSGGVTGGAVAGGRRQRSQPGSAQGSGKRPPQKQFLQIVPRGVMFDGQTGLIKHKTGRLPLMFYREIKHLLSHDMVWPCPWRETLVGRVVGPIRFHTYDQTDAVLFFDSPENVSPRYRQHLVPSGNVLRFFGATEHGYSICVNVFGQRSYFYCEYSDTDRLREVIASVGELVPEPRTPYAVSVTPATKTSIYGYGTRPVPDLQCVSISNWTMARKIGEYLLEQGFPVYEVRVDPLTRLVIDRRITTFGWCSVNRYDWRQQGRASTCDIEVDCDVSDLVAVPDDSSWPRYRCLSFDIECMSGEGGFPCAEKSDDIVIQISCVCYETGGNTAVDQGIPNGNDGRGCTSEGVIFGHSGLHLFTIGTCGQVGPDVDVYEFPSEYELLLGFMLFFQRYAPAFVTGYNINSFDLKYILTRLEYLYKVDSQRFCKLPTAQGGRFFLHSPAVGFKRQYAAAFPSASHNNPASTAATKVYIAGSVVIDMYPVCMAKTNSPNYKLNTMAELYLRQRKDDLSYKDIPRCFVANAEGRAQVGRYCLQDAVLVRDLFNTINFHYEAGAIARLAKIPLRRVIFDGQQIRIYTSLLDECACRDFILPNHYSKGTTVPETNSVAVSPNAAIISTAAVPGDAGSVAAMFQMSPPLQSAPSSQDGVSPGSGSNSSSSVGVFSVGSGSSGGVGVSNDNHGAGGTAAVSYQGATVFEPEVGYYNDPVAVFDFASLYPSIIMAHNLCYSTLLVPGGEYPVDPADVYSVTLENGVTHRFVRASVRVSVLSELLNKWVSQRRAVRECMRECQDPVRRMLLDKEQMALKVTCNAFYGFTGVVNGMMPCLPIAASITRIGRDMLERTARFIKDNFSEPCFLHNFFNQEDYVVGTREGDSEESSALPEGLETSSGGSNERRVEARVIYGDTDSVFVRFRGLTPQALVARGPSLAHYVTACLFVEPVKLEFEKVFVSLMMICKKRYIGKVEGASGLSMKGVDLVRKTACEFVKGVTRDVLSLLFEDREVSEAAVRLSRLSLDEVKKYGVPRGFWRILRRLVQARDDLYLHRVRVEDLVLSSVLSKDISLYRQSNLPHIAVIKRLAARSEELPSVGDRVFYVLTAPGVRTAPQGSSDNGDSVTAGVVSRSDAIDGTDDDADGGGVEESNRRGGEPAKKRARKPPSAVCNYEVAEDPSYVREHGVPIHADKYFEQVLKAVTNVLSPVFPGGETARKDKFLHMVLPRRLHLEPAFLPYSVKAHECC

IC50 [nM] | Structure (SMILES)
310 | CC1(C)CN(C(=O)[C@H]2CC(=O)N(c3cccc(C#N)c3)C2)c2ccc(CCc3ccccn3)cc21 [11bbb1]
140 | Cc1nccn1Cc1cc2c(cc1F)N(C(=O)[C@H]1CC(=O)N(c3cccc(C#N)c3)C1)CC2(C)C [13f1]
1300 | CC(=O)N1CCC2(CC1)CN(C(=O)[C@H]1CC(=O)N(c3cccc(C#N)c3)C1)c1ccc(Cc3cncnc3)cc12 [22z1]
350 | Cc1noc(C)c1Cc1ccc2c(c1)C(C)(C)CN2C(=O)[C@H]1CC(=O)N(c2cccc(C#N)c2)C1 [22bb1]
100 | CC1CN(C(=O)[C@H]2CC(=O)N(c3cccc(C#N)c3)C2)c2ccc(CCn3ccnc3)cc21 (single isomer, unassigned) [11aa1]
3200 | Cc1nccn1Cc1ccc2c(c1)C(C)CN2C(=O)[C@H]1CC(=O)N(c2cccc(C#N)c2)C1 (single isomer, unassigned) [13o1]
200 | CC1(C)CN(C(=O)[C@H]2CC(=O)N(c3cccc(Cl)c3)C2)c2ccc(CCn3ccnc3)cc21 [11g1]
510 | Cn1cc(CCc2ccc3c(c2)C(C)(C)CN3C(=O)[C@H]2CC(=O)N(c3cccc(C#N)c3)C2)cn1 [11v1]
87 | CC1(C)CN(C(=O)[C@H]2CC(=O)N(c3cccc(C#N)c3)C2)c2ccc(CCc3cccc(O)c3)cc21 [11ccc1]
240 | CNc1ncc(CCc2ccc3c(c2)C(C)(C)CN3C(=O)[C@H]2CC(=O)N(c3cccc(C#N)c3)C2)cn1 [17o1]
580 | CC(=O)N1CCC2(CC1)CN(C(=O)[C@H]1CC(=O)N(c3cccc(C#N)c3)C1)c1ccc(CN3CCOCC3)cc12 [11a1]
290 | Cc1oncc1Cc1ccc2c(c1)CCN2C(=O)[C@H]1CC(=O)N(c2cccc(C#N)c2)C1 [22dd1]
160 | CC1(C)CN(C(=O)[C@H]2CC(=O)N(c3cccc(C#N)c3)C2)c2ccc(Cn3cnnc3)cc21 [11vv1]
150 | N#Cc1cccc(N2C[C@@H](C(=O)N3CCc4cc(Cn5ccnc5)ccc43)CC2=O)c1 [13a1]
470 | Cc1ncc(Cc2ccc3c(c2)C(C)(C)CN3C(=O)[C@H]2CC(=O)N(c3cccc(C#N)c3)C2)o1 [22w1]
130 | Cc1ccc(CCc2ccc3c(c2)C(C)(C)CN3C(=O)[C@H]2CC(=O)N(c3cccc(C#N)c3)C2)cn1 [11ss1]
110 | CC1(C)CN(C(=O)[C@H]2CC(=O)N(c3cccc(Cl)c3)C2)c2ccc(Cn3ccnc3)cc21 [13d1]
240 | CC1(C)CN(C(=O)[C@H]2CC(=O)N(c3cccc(C#N)c3)C2)c2ccc(CCn3ccnc3)cc21 [11e1]
990 | CC1(C)CN(C(=O)[C@H]2CC(=O)N(c3cccc(C#N)c3)C2)c2ccc(CCc3ccccc3)cc21 [19b2]
50 | Cc1nccn1Cc1cc2c(cc1Cl)N(C(=O)[C@H]1CC(=O)N(c3cccc(C#N)c3)C1)CC2(C)C [13x1]
63 | CC1CN(C(=O)[C@H]2CC(=O)N(c3cccc(Cl)c3)C2)c2ccc(CCn3ccnc3)cc21 (single isomer, unassigned) [11ee1]
99 | CC1(C)CN(C(=O)[C@H]2CC(=O)N(c3cccc(C#N)c3)C2)c2ccc(CCn3cncn3)cc21 [11zz1]
71 | CC1CN(C(=O)[C@H]2CC(=O)N(c3cccc(C#N)c3)C2)c2ccc(CCc3cncnc3)cc21 (single isomer, unassigned) [11dd1]
150 | CC1CN(C(=O)[C@H]2CC(=O)N(c3cccc(Cl)c3)C2)c2ccc(CCc3cncnc3)cc21 (single isomer, unassigned) [11hh1]
600 | CC(C)n1cnnc1CN(C)Cc1ccc2c(c1)CCN2C(=O)C1CC(=O)N(c2cccc(C#N)c2)C1 (stereo not drawn) [16c3]
480 | Cc1c(Cn2ccnc2C)ccc2c1C(C)(C)CN2C(=O)[C@H]1CC(=O)N(c2cccc(C#N)c2)C1 [11r1]
480 | Cn1cncc1Cc1ccc2c(c1)CCN2C(=O)[C@H]1CC(=O)N(c2cccc(C#N)c2)C1 [22j1]

IC50 [nM] | Structure (SMILES)
380 | CC1(C)CN(C(=O)[C@H]2CC(=O)N(c3cccc(C#N)c3)C2)c2ccc(Cc3cncnc3)cc21 [22l1.2]
550 | Cc1ncc(Cc2ccc3c(c2)C(C)(C)CN3C(=O)C2CC(=O)N(c3cccc(C#N)c3)C2)o1 (stereo not drawn) [22s1]
1600 | Cn1cncc1CCc1ccc2c(c1)C(C)(CO)CN2C(=O)[C@H]1CC(=O)N(c2cccc(Cl)c2)C1 (single isomer, unassigned) [11oo1]
550 | CC1(C)CN(C(=O)[C@H]2CC(=O)N(c3cccc(C#N)c3)C2)c2ccc(Cn3cncc3C(=O)O)cc21 [24d1]
570 | N#Cc1cccc(N2C[C@@H](C(=O)N3CC4(CC4)c4cc(Cc5cncnc5)ccc43)CC2=O)c1 [22u1]
540 | N#Cc1cccc(N2C[C@@H](C(=O)N3CCc4nc(CCn5ccnc5)ccc43)CC2=O)c1 [17n1]
590 | Cc1nccn1Cc1cc2c(cc1C(F)(F)F)N(C(=O)[C@H]1CC(=O)N(c3cccc(C#N)c3)C1)CC2(C)C [11s1]
95 | CC1(C)CN(C(=O)[C@H]2CC(=O)N(c3cccc(C#N)c3)C2)c2ccc(CCc3cncnc3)cc21 [11f1]
86 | CC1(C)CN(C(=O)[C@H]2CC(=O)N(c3cccc(C#N)c3)C2)c2ccc(CNc3cncnc3)cc21 [31a1]
370 | CC1(C)CN(C(=O)[C@H]2CC(=O)N(c3cccc(C#N)c3)C2)c2ccc(CCc3cncc(C#N)c3)cc21 [11t1]
420 | Cn1cncc1CCc1ccc2c(c1)C(C)(C)CN2C(=O)[C@H]1CC(=O)N(c2cccc(C#N)c2)C1 [19c2]
230 | CC1(C)CN(C(=O)C2CC(=O)N(c3cccc(C#N)c3)C2)c2cc(Cl)c(Cn3cnnc3)cc21 (stereo not drawn) [13l1]
750 | Cc1ncc(Cc2ccc3c(c2)C(C)(CO)CN3C(=O)[C@H]2CC(=O)N(c3cccc(Cl)c3)C2)o1 (single isomer, unassigned) [11qq1]
1600 | CC(=O)N1CCC2(CC1)CN(C(=O)[C@H]1CC(=O)N(c3cccc(C#N)c3)C1)c1ccc(Cn3ccnc3C)cc12 [13v1]
94 | CC1(C)CN(C(=O)[C@H]2CC(=O)N(c3cccc(Cl)c3)C2)c2ccc(CCc3cncnc3)cc21 [11h1]
2900 | CC1(C)CN(C(=O)[C@H]2CC(=O)N(c3cccc(C#N)c3)C2)c2ccc(Cc3ccncc3)cc21 [22o1]
38 | CC1(C)CN(C(=O)[C@H]2CC(=O)N(c3cccc(C#N)c3)C2)c2ccc(CCc3cncc(N)c3)cc21 [11ddd1]
2100 | Cc1nccn1Cc1ccc2c(c1F)C(C)(C)CN2C(=O)[C@H]1CC(=O)N(c2cccc(C#N)c2)C1 [13g1]
49 | Cc1cc2c(cc1Cn1ccnc1C)C(C)(C)CN2C(=O)[C@H]1CC(=O)N(c2cccc(C#N)c2)C1 [11q1]
350 | CC(c1ccc2c(c1)C(C)(C)CN2C(=O)[C@H]1CC(=O)N(c2cccc(C#N)c2)C1)n1ccnc1 (mixture of isomers) [11rr1]
790 | Cc1ncc(Cc2ccc3c(c2)C2(CC2)CN3C(=O)[C@H]2CC(=O)N(c3cccc(C#N)c3)C2)o1 [22v1]
360 | N#Cc1cccc(N2C[C@@H](C(=O)N3CC4(CC4)c4cc(Cn5ccnc5)ccc43)CC2=O)c1 [13r1]
260 | CC1(C)CN(C(=O)[C@H]2CC(=O)N(c3cccc(C#N)c3)C2)c2ccc(Cc3cnoc3)cc21 [22a2]
730 | N#Cc1cccc(N2C[C@@H](C(=O)N3CC4(CCOCC4)c4cc(Cn5ccnc5)ccc43)CC2=O)c1 [13t1]
330 | CC1(C)CN(C(=O)[C@H]2CC(=O)N(c3cccc(C#N)c3)C2)c2cc(Cl)c(CCn3ccnc3)cc21 [17b1]
690 | CC1(C)CN(C(=O)[C@H]2CC(=O)N(c3cccc(C#N)c3)C2)c2ccc(Cn3ccnc3CC(=O)O)cc21 [24a1]
840 | CC1(C)CN(C(=O)C2CC(=O)N(c3cccc(C#N)c3)C2)c2ccc(COc3cncnc3)cc21 (stereo not drawn) [13w1]
